Measured values taken from US4536335A, “Carbapenem antibiotics” (Bristol-Myers Company, priority 1983, dated 1985).
Converted amounts (≈) assume the structure as drawn.

Legend:
S. pyogenes A-9604 = experiment: In vitro MIC, tube dilution; format: cell-based; conditions: Streptococcus pyogenes, A9604, tube dilution, Nutrient Broth, overnight incubation at 37° C.; additional data table
[1] = test system: S. aureus A-9606 (Pen-res.); experiment: In vitro MIC, tube dilution; format: cell-based; conditions: Staphylococcus aureus, Nutrient Broth, overnight incubation at 37° C., additional data table, read-out: MIC S. aureus (Pen-res.) A-9606
E. coli A15119 = experiment: In vitro MIC, tube dilution; format: cell-based; conditions: Escherichia coli, A15119, tube dilution, Nutrient Broth, overnight incubation at 37° C.; additional data table
E. coli A20341-1 = experiment: In vitro MIC, tube dilution; format: cell-based; conditions: Escherichia coli, A203411, tube dilution, Nutrient Broth, overnight incubation at 37° C.; additional data table
K. pneumoniae A-9664 = experiment: In vitro MIC, tube dilution; format: cell-based; conditions: Klebsiella pneumoniae, A9664, tube dilution, Nutrient Broth, overnight incubation at 37° C.; additional data table
P. mirabilis A-9900 = experiment: In vitro MIC, tube dilution; format: cell-based; conditions: Proteus mirabilis, A9900, tube dilution, Nutrient Broth, overnight incubation at 37° C.; additional data table
P. morganii A15153 = experiment: In vitro MIC, tube dilution; format: cell-based; conditions: Morganella morganii, A15153, tube dilution, Nutrient Broth, overnight incubation at 37° C.; additional data table; read-out: MIC M. morganii A15153
P. rettgeri A22424 = experiment: In vitro MIC, tube dilution; format: cell-based; conditions: Providencia rettgeri, A22424, tube dilution, Nutrient Broth, overnight incubation at 37° C.; additional data table
E. cloacae A-9656 = experiment: In vitro MIC, tube dilution; format: cell-based; conditions: Enterobacter cloacae, A9656, tube dilution, Nutrient Broth, overnight incubation at 37° C.; additional data table
P. aeruginosa A-9843A [2] = experiment: In vitro MIC, tube dilution; format: cell-based; conditions: Pseudomonas aeruginosa, A9843A, Nutrient Broth, overnight incubation at 37° C., additional data table
P. aeruginosa A21213 = experiment: In vitro MIC, tube dilution; format: cell-based; conditions: Pseudomonas aeruginosa, A21213, tube dilution, Nutrient Broth, overnight incubation at 37° C.; additional data table
P. aeruginosa A-9843a [3] = experiment: Protective effect in the intramuscular treatment of infected mice (PD50); format: in vivo; conditions: Pseudomonas aeruginosa, A9843A, im, read-out: PD50/treatment, P. aeruginosa A9843A
Description: The PD50 (dose in mg/kg required to give protection to 50% of the infected mice) is indicated.
Treatment Schedule: Mice were treated i.m. with drugs 0 and 2 hours post-infection; 5 mice per dose were used for each test
*For compound of Ex. 2, mice were infected i.p. with 2 × 10^9
compounds of Ex. 4 and 5, mice were infected i.p. with ~9 ×
were treated i.m. with drugs 0 and 2 h postinfection.

[4] = Blood levels in mice after intramuscular administration; format: in vivo; conditions: mouse, blood, im, 20 mg/kg, intramuscular dose of 20 mg/kg
Text: Compounds were solubilized in 0.1 M phosphate buffer pH 7. Values are fro
a single test; 4 mice used per compound.
*t1/2 refers to halflife in minutes
**AUC refers to the area under the blood concentrationtime curve
Also shown is the urinary recovery in the mice.
Compounds were solubilized in 0.1 M phosphate buffer, pH 7.
Values based on a single test; 4 mice per compound.
*T1/2 refers to halflife in minutes

[5] = Half-life in phosphate buffer solution; format: physicochemical; conditions: phosphate buffer, pH 7.4, concentration of 10^-4 M in phosphate buffer pH 7.4 at 36.8° C.; read-out: t1/2 (solution stability) (converted)
Description: A solution of para-nitrobenzyl 3-[2-(N-methylthiomorpholinium diphenylphosphate)ethylthio]-6α-[1'-(R)-hydroxyethyl]-7-oxo-1-azabicyclo[3.2.0]hept-2-ene-2-carboxylate (1.31 g, 1.76 mmol) in 0.1 M pH 7.4 phosphate buffer (48.8 mL), tetrahydrofuran (20 mL) and diethyl ether (20 mL) was hydrogenated over 10% pd/C (1.5 g) in a Parr shaker for 1 h at 40 psi. The reaction mixture was diluted with diethyl ether (40 mL) and the phases were separated. The organic phase was washed with water (2×5 mL). The aqueous phases were combined, filtered through a #52 hardened filter paper, washed with diethyl ether (2×20 mL) and pumped under vacuum. The aqueous solution was poured on a silica gel reverse phase column and the desired carbapenem was eluted with 5% acetonitrile-water.
To a solution of p-nitrobenzyl (5R,6S)-3-[2-(1-methylmorpholino)ethylthio]-6-[(R)-1-hydroxyethyl]-7-oxo-1-azabicyclo[3.2.0]hept-2-ene-2-carboxylate diphenylphosphate (0.360 g, 0.49 mmol) in 13 mL of phosphate buffer (0.05 M pH 7.4) was added 0.36 g of 10% palladium-on-charcoal, 20 mL of tetrahydrofuran and 20 mL of diethyl ether. This mixture was hydrogenated (Parr) at 32 psi for 1 h. The mixture was filtered through Celite and the filter pad was washed with H2 O and diethyl ether. The aqueous phase was separated and the pH was adjusted to 7.0 with additional pH 7.4 phosphate buffer. After removing residual organic solvents in vacuo the aqueous solution was applied to a C18 reverse-phase column.
To a solution of (5R,6S)paranitrobenzyl 3-[2-(1,4-dimethyl-1-piperazinium)ethylthio]-6-[1-(R)-hydroxyethyl]-7-oxo- 1-azabicyclo[3.2.0]hept-2-ene-2-carboxylate diphenylphosphate (0.47 g, 0.623 mmol) in wet tetrahydrofuran (25 mL) was added diethyl ether (25 mL), potassium phosphate monobasic-sodium hydroxide buffer (13 mL, pH 7.22) and 10% palladium on charcoal (0.47 g). The resulting mixture was hydrogenated at 23° C. under 40 psi for 1 h. The two layers were separated and the organic layer was extracted with water (2×7 mL).
To a cold (-10° C.) solution of (5R,6S)-3-[2 -(N-methyl-thiomorpholinium)ethylthio]-6-[1-(R)-hydroxyethyl]-7-oxo-1-azabicyclo(3.2.0)-hept-2-ene-2-carboxylate (608 mg, 1.65 mmol) in a 1:1 mixture of acetonitrile-water (9 mL) was added m-chloroperbenzoic acid (334.8 mg, 1.65 mmol) in small portion over a 1 hour period. The mixture was then diluted with water (15 mL) and washed with diethyl ether (3×15 mL).
A mixture of (5R,6S) paranitrobenzyl 3-[2-(1,4,4-trimethyl-1-piperazinium)ethylthio]-6-[1R-hydroxyethyl]-7-oxo- 1-azabicyclo(3.2.0)hept-2-ene-2-carboxylate bischloride (0.40 g, 0.68 mmol), phosphate buffer (30 mL, 0.05M, pH 7.0), tetrahydrofuran (10 mL), ether (30 mL) and 10% palladium on charcoal (0.40 g) was hydrogenated at 23° C. under 35 psi for 1 h. The two phases were separated. The organic phase was extracted with water (10 mL).

C[C@@H](O)[C@H]1C(=O)N2C(C(=O)[O-])=C(SCC[N+]3(C)CCN(C)CC3)C[C@H]12 [Example 4, (5R,6S)3-[2-(1,4-dimethyl-1-piperazinium)-ethylthio]-6-[1-(R)-hydroxyethyl]-7-oxo-1-azabicyclo-[3.2.0]hept-2-ene-2-carboxylate]
MIC (S. pyogenes A-9604): 0.004 µg/mL (≈ 0.0108 µM)
MIC [1]: 0.06 µg/mL (≈ 0.162 µM)
MIC (E. coli A15119): 0.13 µg/mL (≈ 0.352 µM)
MIC (E. coli A20341-1): 0.13 µg/mL (≈ 0.352 µM)
MIC (K. pneumoniae A-9664): 0.25 µg/mL (≈ 0.677 µM)
MIC (P. mirabilis A-9900): 0.25 µg/mL (≈ 0.677 µM)
MIC (P. morganii A15153): 1 µg/mL (≈ 2.71 µM)
MIC (P. rettgeri A22424): 1 µg/mL (≈ 2.71 µM)
MIC (E. cloacae A-9656): 2 µg/mL (≈ 5.41 µM)
MIC (P. aeruginosa A-9843A [2]): 16 µg/mL (≈ 43.3 µM)
MIC (P. aeruginosa A21213): 1 µg/mL (≈ 2.71 µM)
ED50 (P. aeruginosa A-9843a [3]): 2.7 mg/kg
Cmax [4]: 17300 ng/mL
AUC ([4]; read-out: Blood AUC): 7600 ng·h/mL
half-life ([4]; read-out: Blood T1/2): 0.2 h
half-life [5]: 12.4 h
